Test results: patent publication US20040018150A1, “Prodrugs of phosphonate nucleotide analogues and methods for selecting and making same” (priority 2003, published 2004)
Read-outs that look alike come from different tables or passages of the source.

How the values were obtained:
[1] = Stability in human plasma; format: in vitro ADME
Method: (§1) The in vitro metabolism and stability of separated diastereomers were determined in PLCE, MT-2 extract and human plasma. A biological sample listed below, 80 μL, was transferred into a screw-capped centrifuge tube and incubated at 37° C. for 5 min. A solution containing 0.2 mg/mL of the test compound in a suitable buffer, 20 μL, was added to the biological sample and mixed. The reaction mixture, 20 μL, was immediately sampled and mixed with 60 μL of methanol containing 0.015 mg/mL of 2-hydroxymethylnaphthalene as an internal standard for HPLC analysis. The sample was taken as the time-zero sample. Then, at specific time points, the reaction mixture, 20 μL, was sampled and mixed with 60 μL of methanol containing the internal standard. The mixture thus obtained was centrifuged at 15,000 G for 5 min and the supernatant was analyzed with HPLC under the conditions described below.
(3) Human plasma (pooled normal human plasma from George King Biomedical Systems, Inc.)
In the study for human plasma, the test compound was dissolved in TBS. TBS (tris-buffered saline, Sigma) contains 0.05 M Tris, 0.0027 M potassium chloride, and 0.138 M sodium chloride. pH 7.5 at 37° C.
(§2) The HPLC analysis was carried out under the following conditions.

[2] = Cytotoxicity in MT-2 cells; settings: human
[3] = system: PLCE (porcine liver carboxyesterase); assay: in vitro; format: in vitro ADME; settings: 37° C., PBS pH 7.4
Method: as §1
(§3) (1) PLCE (porcine liver carboxyesterase from Sigma, 160 u/mg protein, 21 mg protein/mL) diluted 20 fold with PBS (phosphated-buffered saline).
(§4) In the study for PLCE, the test compound was dissolved in PBS. PBS (phosphate-buffered saline, Sigma) contains 0.01 M phosphate, 0.0027 M potassium chloride, and 0.137 M sodium chloride. pH 7.4 at 37° C.
as §2

[4] = system: porcine liver carboxyesterase (PLCE); assay: in vitro; format: in vitro ADME; settings: pig; 37° C., PBS pH 7.4; read-out: PLCE hydrolysis rate t1/2
Method: as §1, §3, §4, §2

[5] = Incubation of radiolabeled PMPA prodrugs or PMPA in human whole blood; metabolites in plasma, PBMCs and RBCs; format: in vitro ADME; settings: human blood; for Total C-14 Recovered: 1 h incubation, 60 μg-eq; for Metabolites (% of Total Peak Area): GS 7340: 1 h
Method: After 1 hour, plasma, red blood cells (RBCs) and peripheral blood mononuclear cells (PBMCs) were isolated and analyzed by HPLC with radiometric detection.

HIV-1 = assay: microbe, parasite or virus in culture
[6] = Excretion and tissue distribution of radiolabelled prodrug in dogs; settings: dogs; for % Dose / Conc.: oral 10 mg-eq. PMPA/kg
Method: Plasma and peripheral blood mononuclear cells (PBMCs) were obtained over the 24-hr period. Urine and feces were cage collected over 24 hr. At 24 h after the dose, the animals were sacrificed and tissues removed for analysis. Total radioactivity in tissues was determined by oxidation and liquid scintillation counting.

[7] = Stability / hydrolysis in MT-2 cell extract; format: in vitro ADME
Method: as §1
(2) MT-2 cell extract was prepared from MT-2 cells according to the published procedure [A. Pompon, I. Lefebvre, J.-L. Imbach, S. Kahn, and D. Farquhar, “Antiviral Chemistry & Chemotherapy”, 5:91-98 (1994)] except for using HEPES buffer described below as the medium.
In the study for MT-2 cell extracts, the test compound was dissolved in HEPES buffer. HEPES buffer contains 0.010 M HEPES, 0.05 M potassium chloride, 0.005 M magnesium chloride, and 0.005 M dl-dithiothreitol. pH 7.4 at 37° C.
as §2

## CC(C)OC(=O)[C@H](C)N[P@](=O)(CO[C@H](C)Cn1cnc2c(N)ncnc21)Oc1ccccc1 (single isomer, unassigned) [GS-7340]
[1]; 37° C., TBS pH 7.5
  Human Plasma Stability (HP) product: Met. Y
[1]; pH 7.5, human plasma, read-out: Stability T 1/2 Human Plasma
  half-life at 0.04 mg/mL: 90 min
[2]; CC50, cell culture
  CC50: ≥ 40000 nM
[2]; Cytotoxicity CC50, MT-2 cells
  CC50: > 40000 nM
[3]
  PLCE hydrolysis product: Met. X & PMPA
[4]
  half-life at 0.04 mg/mL: 3.3 min
[5]; PBMC
  Total C-14 Recovered: 1.25 μg-eq
[5]; Plasma/FP
  Metabolites (% of Total Peak Area): GS 7340: 84%
  Total C-14 Recovered: 43.0 μg-eq
[5]; RBC/FP
  Metabolites (% of Total Peak Area): GS 7340: 57%
  Total C-14 Recovered: 12.6 μg-eq
[5]; plasma after 1 hour
  radioactivity in plasma due to intact GS-7340: 84%
HIV-1; Human immunodeficiency virus 1, MT2
  IC50: 5 nM
HIV-1; Human immunodeficiency virus 1, MT2, read-out: HIV IC50
  IC50: 5 nM
HIV-1; Human immunodeficiency virus 1, MT2, read-out: HIV-1 Activity IC50
  IC50: 5 nM
[6]; Abdominal fat, 24 h
  % Dose: 0.00%
  Conc.: 0.90 ug-eq/g
[6]; Adrenal Gland, 24 h
  % Dose: 0.00%
  Conc.: 3.47 ug-eq/g
[6]; Axillary Lymph Nodes, 24 h
  % Dose: 0.01%
  Conc.: 5.54 ug-eq/g
[6]; Bile, 24 h
  % Dose: 0.22%
  Conc.: 40.48 ug-eq/g
[6]; Bone Marrow, 24 h
  % Dose: 0.00%
  Conc.: 2.05 ug-eq/g
[6]; Brain, 24 h
  % Dose: 0.00%
  Conc.: <LOD
[6]; Cerebrospinal Fluid, 24 h
  % Dose: 0.00%
  Conc.: 0.00 ug-eq/g
[6]; Duodenum, 24 h
  % Dose: 0.44%
  Conc.: 8.77 ug-eq/g
[6]; Eye (L + R), 24 h
  % Dose: 0.00%
  Conc.: 0.23 ug-eq/g
[6]; Feces, collected over 24 hr
  % Dose: 0.19%
[6]; Femoral Bone, 24 h
  % Dose: 0.00%
  Conc.: 0.28 ug-eq/g
[6]; Gall bladder, 24 h
  % Dose: 0.04%
  Conc.: 25.02 ug-eq/g
[6]; Heart, 24 h
  % Dose: 0.15%
  Conc.: 1.97 ug-eq/g
[6]; Ileum, 24 h
  % Dose: 0.16%
  Conc.: 4.61 ug-eq/g
[6]; Iliac Lymph Nodes, 24 h
  % Dose: 0.01%
  Conc.: 5.42 ug-eq/g
[6]; Inguinal Lymph Nodes, 24 h
  % Dose: 0.00%
  Conc.: 4.12 ug-eq/g
[6]; Jejunum, 24 h
  % Dose: 0.79%
  Conc.: 4.16 ug-eq/g
[6]; Kidney, 24 h
  % Dose: 3.78%
  Conc.: 80.21 ug-eq/g
[6]; Large Intestine, 24 h
  % Dose: 2.65%
  Conc.: 47.20 ug-eq/g
[6]; Liver, 24 h
  % Dose: 16.45%
  Conc.: 52.94 ug-eq/g
[6]; Lungs, 24 h
  % Dose: 0.34%
  Conc.: 4.33 ug-eq/g
[6]; Mesenteric Lymph Nodes, 24 h
  % Dose: 0.04%
  Conc.: 6.88 ug-eq/g
[6]; PBMC
  % Dose: 0.00%
[6]; PBMC, calculated using typical recovery of 15 × 10^6 cells total, mean PBMC volume 0.2 picoliters/cell
  Conc.: 63.20 ug-eq/g
[6]; Pancreas, 24 h
  % Dose: 0.01%
  Conc.: 3.51 ug-eq/g
[6]; Pituitary Gland, 24 h
  % Dose: 0.00%
  Conc.: 1.80 ug-eq/g
[6]; Plasma at 0.25 h
  Conc.: 3.48 ug-eq/g
[6]; Plasma at 24 h
  % Dose: 0.00%
  Conc.: 0.20 ug-eq/g
[6]; Prostate, 24 h
  % Dose: 0.00%
  Conc.: 2.14 ug-eq/g
[6]; Salivary Gland (L + R), 24 h
  % Dose: 0.03%
  Conc.: 5.54 ug-eq/g
[6]; Skeletal Muscle, 24 h
  % Dose: 0.01%
  Conc.: 1.12 ug-eq/g
[6]; Skin, 24 h
  % Dose: 0.00%
  Conc.: 0.95 ug-eq/g
[6]; Spinal Cord, 24 h
  % Dose: 0.00%
  Conc.: 0.04 ug-eq/g
[6]; Spleen, 24 h
  % Dose: 0.17%
  Conc.: 8.13 ug-eq/g
[6]; Stomach, 24 h
  % Dose: 0.26%
  Conc.: 2.68 ug-eq/g
[6]; Testes (L + R), 24 h
  % Dose: 0.02%
  Conc.: 2.01 ug-eq/g
[6]; Thyroid Gland, 24 h
  % Dose: 0.00%
  Conc.: 4.78 ug-eq/g
[6]; Total GI Tract Contents, 24 h
  % Dose: 21.64%
[6]; Total Recovery, 24 h
  % Dose: 68.96%
[6]; Urine, collected over 24 hr
  % Dose: 14.73%
[6]; Whole Blood, 24 h
  % Dose: 0.16%
  Conc.: 0.20 ug-eq/g
[6]; 24 hours after single oral dose, versus TDF
  increase of levels of PMPA in the lymphatic tissues, bone marrow, and skeletal muscle: 10 fold
[7]; 37° C., HEPES buffer pH 7.4
  MT-2 extract hydrolysis product: Met. X & PMPA
[7]; human, pH 7.4, MT-2 cell extract, read-out: Stability T 1/2 MT-2 Cell Extract
  half-life at 0.04 mg/mL: 28.3 min
